This note sets out measurements from patent US5935960A, “Pro-drugs of 5-(2-(4-(1,2-benzisothiazol-3-yl)-1-piperazinyl)ethyl)-6-chloro-1,3-dihy dro-2H-indol-2-one” (Pfizer Inc., priority 1997, dated 1999).

Structures are written as SMILES. Where a name gives a salt, the structure may show the parent alone. Read-outs that look alike come from different tables or passages of the source.

One series can be described thus: aqueous solubility. Conditions: dihydrochloride salt, at about 25° C. It is filed as physicochemical.
A short description of series [1]: titration with 0.2032 Molar sodium hydroxide (pKa). It is filed as physicochemical. Conditions: dihydrochloride titrated with 0.2032 M NaOH. On the procedure: The compound (5.0 g, 12.1 mmol) from Example 1 was suspended in 75 mL of THF at room temperature, and then 1.97 mL of concentrated hydrochloric acid was slowly added over 30 min affording a gummy solid. Water (5 mL) was added and the gummy solids were stirred for 6 hours to produce a finely divided solid which was granulated overnight. The mixture was filtered and the filter cake was washed with THF (10 mL). The product was dried in vacuo at 25° C. overnight under a nitrogen bleed to give 5.87 g of the title dihydrochloride compound as a tan solid (mp=232-240° C. with decomposition).

A further series concerns the target T1, Dopamine D-3 receptor (Homo sapiens, UniProt P35462).
T1 construct: expressed in transfected cells; host or cells: CHO cells (from Dr. J. C. Schwartz, INSERM, Paris)
Nature of the series: Dopamine D-3 radioligand binding (3H-spiroperidol, human D3-transfected CHO cells). To be noted: 3H-spiroperidol 0.1 nM, pH 7.4, read-out: Radioligand Binding Results, D3 (apparent Ki). The text has this:
(§1) The compound of formula I is therefore useful in the treatment or prevention of psychotic disorders, such as schizophrenia. […] Specifically, the standard methods for determining neuroleptic activity are based on Dopamine D-2, Dopamine D-3, Dopamine D4, 5-hydroxytryptamine-1A (5-HT-1A), 5-hydroxytryptamine-2C (5-HT-2C), and 5-hydroxytryptamine-2A (5-HT-2A) receptor binding studies. Tissues or membranes used to perform these studies are derived from rat, pig, or from cell lines expressing human receptor subtypes. LTK-cells expressing the human D2Long receptor were obtained from Dr. Olivier Civelli, Oregon Health Sciences University, Portland, Oreg. Chinese hamster ovary cells (CHO) expressing the human D3 receptor were obtained from Dr. J. C. […]
(§2) The following protocol describes one possible method for determining activity for the compound of formula I. Specific assay conditions for each receptor is described in Table 1, below. […] Non-specific binding is determined by radioligand binding in the presence of a saturating excess of a known competitor for the receptor of interest (as listed in Table 1). […] Membrane-bound ligand is determined by liquid scintillation counting of the filters in Ready-Safe scintillation cocktail (for tritiated ligands), or by direct counting in a gamma counter (for [^125 .vertline.] ligands). […]

Another series deals with T2, Dopamine D-4 receptor (Homo sapiens, UniProt P21917).
T2 construct: expressed in transfected cells; host or cells: COS-7 cells
T2 sequence (P21917 1-419): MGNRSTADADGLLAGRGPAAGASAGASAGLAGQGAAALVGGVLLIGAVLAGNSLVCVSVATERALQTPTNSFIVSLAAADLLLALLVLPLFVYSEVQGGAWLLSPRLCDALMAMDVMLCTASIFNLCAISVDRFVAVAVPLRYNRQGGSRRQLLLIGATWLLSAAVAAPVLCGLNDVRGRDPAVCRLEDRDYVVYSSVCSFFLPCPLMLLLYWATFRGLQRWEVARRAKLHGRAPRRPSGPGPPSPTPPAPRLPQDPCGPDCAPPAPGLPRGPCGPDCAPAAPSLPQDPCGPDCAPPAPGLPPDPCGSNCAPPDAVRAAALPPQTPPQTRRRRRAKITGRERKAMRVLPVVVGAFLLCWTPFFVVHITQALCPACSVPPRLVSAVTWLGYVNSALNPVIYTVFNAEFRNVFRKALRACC
Briefly: Dopamine D-4 radioligand binding (3H-spiroperidol, human D4-transfected COS-7 cells). Conditions: 3H-spiroperidol 0.1 nM, pH 7.4, read-out: Radioligand Binding Results, D4 (apparent Ki).
Source text: as §1, §2

The next series deals with T3, 5HT-2A receptor (Rattus norvegicus, UniProt P14842).
T3 construct: rat frontal; from tissue; host or cells: rat frontal cortex
Nature of the series: 5HT-2A radioligand binding (3H-ketanserin, rat frontal cortex). Conditions: 3H-ketanserin 0.4 nM, pH 7.7, read-out: Radioligand Binding Results, 5HT2 (IC50).
Source text: as §1, §2

Another series has as its target T4, 5HT-1A receptor (Rattus norvegicus, UniProt P19327).
T4 construct: rat cortex; from tissue; host or cells: rat cortex
T4 sequence (P19327 1-422): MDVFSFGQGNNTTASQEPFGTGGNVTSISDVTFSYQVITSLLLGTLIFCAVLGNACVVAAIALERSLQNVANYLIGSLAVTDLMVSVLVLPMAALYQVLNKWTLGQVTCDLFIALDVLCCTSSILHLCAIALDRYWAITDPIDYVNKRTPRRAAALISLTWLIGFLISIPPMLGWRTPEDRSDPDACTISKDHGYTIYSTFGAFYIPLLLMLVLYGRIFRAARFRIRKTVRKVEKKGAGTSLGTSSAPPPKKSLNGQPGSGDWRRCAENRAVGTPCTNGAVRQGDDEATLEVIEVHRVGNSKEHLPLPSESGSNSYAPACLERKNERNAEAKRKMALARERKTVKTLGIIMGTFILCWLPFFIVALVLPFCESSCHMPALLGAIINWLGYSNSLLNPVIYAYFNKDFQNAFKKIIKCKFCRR
Nature of the series: 5HT-1A radioligand binding (3H-8OH-DPAT, rat cortex). Conditions: 3H-8OH-DPAT 1.5 nM, pH 7.7, read-out: Radioligand Binding Results, 5HT1A (IC50).
Source text: as §1, §2

T1 sequence (P35462 whole entry): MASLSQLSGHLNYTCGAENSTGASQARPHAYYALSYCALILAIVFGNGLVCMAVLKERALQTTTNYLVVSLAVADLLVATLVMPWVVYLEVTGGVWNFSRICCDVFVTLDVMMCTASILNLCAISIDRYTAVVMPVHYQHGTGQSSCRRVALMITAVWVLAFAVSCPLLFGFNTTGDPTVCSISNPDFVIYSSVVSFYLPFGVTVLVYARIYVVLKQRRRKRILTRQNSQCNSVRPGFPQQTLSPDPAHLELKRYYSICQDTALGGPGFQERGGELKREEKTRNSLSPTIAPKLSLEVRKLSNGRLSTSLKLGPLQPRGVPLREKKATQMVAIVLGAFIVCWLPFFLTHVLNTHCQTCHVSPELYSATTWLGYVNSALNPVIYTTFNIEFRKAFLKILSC
T3 sequence (P14842 whole entry): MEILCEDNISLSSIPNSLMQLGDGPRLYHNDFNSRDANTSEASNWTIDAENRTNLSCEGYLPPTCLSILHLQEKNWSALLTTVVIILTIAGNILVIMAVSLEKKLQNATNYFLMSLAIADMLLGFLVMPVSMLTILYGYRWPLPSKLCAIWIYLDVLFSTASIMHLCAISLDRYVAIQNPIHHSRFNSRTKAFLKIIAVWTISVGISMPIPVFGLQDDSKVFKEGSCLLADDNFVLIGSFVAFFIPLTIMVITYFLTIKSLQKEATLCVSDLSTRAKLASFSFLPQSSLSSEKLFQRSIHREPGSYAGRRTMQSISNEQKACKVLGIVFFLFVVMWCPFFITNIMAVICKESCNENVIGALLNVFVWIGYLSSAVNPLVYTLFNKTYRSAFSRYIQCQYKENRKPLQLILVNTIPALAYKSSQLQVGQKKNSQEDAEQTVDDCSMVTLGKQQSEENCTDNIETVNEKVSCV

As for `N=C(c1ccccc1S)N1CCN(CCc2cc3c(cc2Cl)NC(=O)C3)CC1` [Example 2, 1-[2-(6-Chloro-2.3-dihydro-2-oxo-1H-indol-5-yl)ethyl]-4-[(imino(2-mercaptophenyl)methyl]piperazinedihydrochloride], the “aqueous solubility relative to ziprasidone hydrochloride (times higher)” value in the series “aqueous solubility” is “approximately 300 times”. The solubility in the series “aqueous solubility” (water) was approximately 25 mg/mL. Besides, the pKa stood at 3.1 in series [1] (first equivalence point pH 4.33, read-out: pKa (first)) and 5.5 in series [1] (second equivalence point pH 8.22, read-out: pKa (second)).
Turning to `N=C(c1ccccc1S)N1CCN(CCc2cc3c(cc2Cl)NC(=O)C3)CC1` [Example 1, 1-[2-(6-chloro-2,3-dihydro-2-oxo-1H-indol-5-yl)ethyl]-4-[imino(2-mercaptophenyl)methyl]piperazine], the values for the Ki on Dopamine D-3 receptor and at Dopamine D-4 receptor were 5.8 nM and 59.2 nM, respectively. Further, the figures for the IC50 at 5HT-2A receptor and on 5HT-1A receptor were 0.35 nM and 12 nM, respectively.
